In the NIST ThermoML archive (doi:10.1021/je800110r):

Conditions: 293.15 K, Liquid, Vibrating tube method

CCCCCCCCCC [decane]
Conditions	mass density [kg/m3]
14791 kPa	740.7
14807 kPa	740.7
14821 kPa	740.7
14833 kPa	740.8
14847 kPa	740.7
14859 kPa	740.7
14877 kPa	740.9
14893 kPa	740.7
14910 kPa	740.8
14926 kPa	740.8
14943 kPa	740.9
14959 kPa	740.8
14975 kPa	740.9
14992 kPa	740.9
15008 kPa	740.8
15023 kPa	740.8
15039 kPa	740.9
15050 kPa	740.9
15066 kPa	740.9
15087 kPa	740.9
15102 kPa	740.9
15115 kPa	741
15129 kPa	740.8
15143 kPa	741
15156 kPa	740.9
15175 kPa	741
15192 kPa	741
15209 kPa	740.9
15224 kPa	741
15236 kPa	741
15251 kPa	741.2
15270 kPa	741.1
15288 kPa	741.1
15305 kPa	741.1
15317 kPa	741.1
15339 kPa	741.1
15352 kPa	741
15365 kPa	741.1
15382 kPa	741.1
15393 kPa	741.1
15408 kPa	741.2
15428 kPa	741.1
15443 kPa	741.2
15454 kPa	741
15470 kPa	741.2
15485 kPa	741.2
15503 kPa	741.2
15519 kPa	741.2
15539 kPa	741.2
15556 kPa	741.1
15572 kPa	741.2
15588 kPa	741.1
15604 kPa	741.4
15622 kPa	741.2
15644 kPa	741.2
15658 kPa	741.2
15676 kPa	741.3
15694 kPa	741.4
15710 kPa	741.3
15722 kPa	741.3
15735 kPa	741.3
15751 kPa	741.4
15769 kPa	741.4
15792 kPa	741.3
15809 kPa	741.5
15827 kPa	741.3
15843 kPa	741.3
15857 kPa	741.5
15872 kPa	741.5
15888 kPa	741.4
15909 kPa	741.5
15925 kPa	741.5
15942 kPa	741.5
15959 kPa	741.5
15974 kPa	741.5
15989 kPa	741.5
16007 kPa	741.6
16024 kPa	741.5
16039 kPa	741.6
16056 kPa	741.5
16073 kPa	741.6
16093 kPa	741.6
16108 kPa	741.6
16128 kPa	741.6
16142 kPa	741.6
16167 kPa	741.7
16183 kPa	741.8
16198 kPa	741.7
16215 kPa	741.7
16233 kPa	741.7
16251 kPa	741.8
16267 kPa	741.8
16282 kPa	741.7
16298 kPa	741.7
16314 kPa	741.7
16332 kPa	741.6
16345 kPa	741.8
16369 kPa	741.8
16390 kPa	741.8
16405 kPa	741.8
16426 kPa	741.8
16442 kPa	741.9
16464 kPa	741.8
16484 kPa	741.9
16503 kPa	741.9
16517 kPa	741.9
16533 kPa	741.9
16557 kPa	741.9
16569 kPa	741.9
16584 kPa	741.8
16597 kPa	741.9
16615 kPa	741.9
16628 kPa	742
16646 kPa	742
16662 kPa	742.1
16681 kPa	742
16694 kPa	742
16705 kPa	742.1
16717 kPa	742
16728 kPa	742
16745 kPa	742.2
16761 kPa	742
16772 kPa	742.1
16786 kPa	742
16800 kPa	742
16814 kPa	742
16828 kPa	742.2
16842 kPa	742
16860 kPa	742.1
16874 kPa	742.1
16892 kPa	742.1
16905 kPa	742.1
16923 kPa	742.2
16935 kPa	742.1
16956 kPa	742.1
16972 kPa	742.3
16986 kPa	742.2
